Counter-ions that a name gives are not always drawn.
Columns and labels:
[1] = Drug solubility in exemplar lipid formulations (SEDDS) and individual excipients
Description: Where lipid based formulations have been employed, formulations were made up in glass vials by weighing the appropriate quantities of excipient directly into the vial, followed by mixing
In some cases the solubility of the low melting ionic salt in individual excipients was also measured.
Drug solubility in each formulation was assessed in one of two ways. Firstly, quantitatively, by incubating formulations with excess drug at 37 degrees and taking samples over time. These samples were centrifuged to pellet solid material and the drug concentration in the formulation assessed by HPLC.

[2] = In vitro dispersion and digestion of cinnarizine decylsulfate SEDDS solution in simulated intestinal fluid; format: in vitro ADME; conditions: after in vitro dispersion or digestion of SEDDS solution in SIF
[3] = Equilibrium solubility in colloids formed by in vitro digestion of blank SEDDS in simulated intestinal fluid; format: physicochemical; conditions: colloids from 60 min digestion of blank LC2 SEDDS (1 g in 39 mL SIF), pH 6.5, 37° C.
Description: In this experiment blank SEDDS formulation (1 g) was dispersed in 39 mL of simulated intestinal fluid. (SIF) (2 mM Tris-maleate, 1.4 mM CaCl2.H2O, 150 mM NaCl, 3 mM NaTDC, 0.75 mM PC, pH 6.5, 37° C.) and pancreatic enzymes added to stimulate digestion. The experiment was conducted at 37° C. and allowed to continue for 60 mins. […] From the data in Table 5.3 below it is apparent that synthesis of the IL increases drug affinity for intestinal colloidal phases and therefore increases solubilisation in the GI tract—consistent with the increases in exposure seen in FIG. 3

[4] = Itraconazole plasma pharmacokinetics after oral administration of comparative formulations to rats; format: in vivo; conditions: same equivalent dose of ITZ FB, solution in SEDDS
Description: Note that the very low solubility of ITZ free base precludes formulation as a lipid based formulation. It is only via isolation as the IL that this possibility is realised since the solubility of the ITZ IL in lipid formulations is very much higher. All were dosed at the same dose (20 mg/kg).
The isolation of ITZ as the docusate IL increased drug solubility in the SEDDS formulation and allowed administration as a Solution in the SEDDS formulation. […] ITZ FB was not sufficiently soluble in the SEDDS formulation to allow administration as a solution in the SEDDS at any reasonable dose and was therefore dosed as a suspension in the SEDDS formulation and also as an aqueous suspension. The same dose was administered as the commercial Sporanox formulation of ITZ FB
It is apparent that the ITZ IL formulation allowed administration of a much higher ITZ dose as a solution in a lipid based formulation and that this in turn led to much higher plasma levels than the equivalent suspension formulation of the free base, or the commercial Sporanox formulation.

[5] = SEDDS: 15% soybean oil, 15% Maisine 35-1, 60% Cremophor EL, 10% EtOH
[6] = Table 8 Meclofenamic Acid, MC SEDDS
[7] = Table 7 Tolfenamic Acid, MC SEDDS

C(=C/c1ccccc1)/CN1CCN(C(c2ccccc2)c2ccccc2)CC1 [Cinnadzine free base, Cinnarizine, reference compound]
cinnarizine solubility in the lipid vehicle [1, 5]: approximately 44 mg/g

C(=C\c1ccccc1)/CN1CCN(C(c2ccccc2)c2ccccc2)CC1 [Cinnarizine-decylsulfate, Cinnarizine Decylsulfate]
incorporated drug remaining solubilized in an aqueous phase [2]: more than 95%
miscibility with the SEDDS formulation [1, 5]: essentially miscible

COc1ccc2c(c1)[C@]13CCCC[C@@H]1[C@H](C2)N(C)CC3 [Dextromethorphan, reference compound]
Solubility in MC SEDDS (mg/g) Free base equiv. ([1]; Table 5 Dextromethorphan and Metformin, MC SEDDS): <50 mg/g

CCC(C)n1ncn(-c2ccc(N3CCN(c4ccc(OCC5COC(Cn6cncn6)(c6ccc(Cl)cc6Cl)O5)cc4)CC3)cc2)c1=O (stereo not shown) [Itraconazole free base, Itraconazole, reference compound]
Solubility in simulated intestinal fluid plus lipid digestion products ([3]; listed as ITZ FB): <47 µg/mL

CCC(C)n1ncn(-c2ccc(N3CCN(c4ccc(OCC5COC(Cn6cncn6)(c6ccc(Cl)cc6Cl)O5)cc4)CC3)cc2)c1=O (stereo not shown) [Itraconazole- diocytlsulfosuccinate, Itraconazole Dioctylsulfosuccinate (Docusate)]
plasma levels compared to the commercial formulation [4]: ~2.5 fold
Solubility in simulated intestinal fluid plus lipid digestion products ([3]; listed as ITZ-docusate IL): 1720 ± 150 µg/mL
Solubility in LC^2 SEDDS (mg/g) itraconazole equiv. ([1]; LC2 SEDDS: 30% SBO, 30% Maisine, 30% CrEL, 10% EtOH): 159.8 mg/g

Cc1ccc(Cl)c(Nc2ccccc2C(=O)O)c1Cl [Meclofenamic acid, 1- hexadecyl-3- methylpyridinium salt] [Meclofenamic Acid, 1-hexadecyl-3-methylpyridinium Salt]
Solubility in MC^2 SEDDS (mg/g) Free base equiv. [1, 6]: >240 mg/g

Cc1ccc(Cl)c(Nc2ccccc2C(=O)O)c1Cl [Meclofenamic acid, N-decyl-N,N- dimethyldodecylammonium salt] [Meclofenamic Acid, N-decyl-N,N-dimethyldodecylammonium Salt]
Solubility in MC^2 SEDDS (mg/g) Free base equiv. [1, 6]: >240 mg/g

Cc1c(Cl)cccc1Nc1ccccc1C(=O)O [Tolfenamic acid dodecylammonium salt, Tolfenamic Acid, Dodecylammonium Salt]
Solubility in MC^2 SEDDS (mg/g) Free base equiv. [1, 7]: >50 mg/g

Cc1c(Cl)cccc1Nc1ccccc1C(=O)O [Tolfenamic acid, N-butyl- N,N-dimethylbutyl-N- dodecylammoni] [Tolfenamic Acid, N-butyl-N,N-dimethylbutyl-N-dodecylammonium Salt]
Solubility in MC^2 SEDDS (mg/g) Free base equiv. [1, 7]: >200 mg/g

Cc1c(Cl)cccc1Nc1ccccc1C(=O)O [Tolfenamic acid, N-decyl-N,N- dimethyldodecylammonium salt] [Tolfenamic Acid, N-decyl-N,N-dimethyldodecylammonium Salt]
Solubility in MC^2 SEDDS (mg/g) Free base equiv. [1, 7]: >200 mg/g

— patent US20160151503A1, “COMPOSITIONS AND PREPARATION METHODS OF LOW MELTING IONIC SALTS OF POORLY-WATER SOLUBLE DRUGS” (MW ENCAP LIMITED, priority 2013, published 2016)
